Results on one molecule are retold here after patent US10245261B2, “Substituted indol-5-ol derivatives and their therapeutic applications” (NantBioScience, Inc., priority 2013, dated 2019).

Series [1] has as its system NCI 60 cancer cell line panel. The experiment in a line: NCI-60 DTP Human Tumor Cell Line Panel, SRB growth inhibition. It is filed as cell-based. Conditions: cell lines from the NCI 60 panel. As for the experimental part: The human tumor cell lines of the cancer screening panel are grown in RPMI 1640 medium containing 5% fetal bovine serum and 2 mM L-glutamine. For a typical screening experiment, cells are inoculated into 96 well microtiter plates in 100 μL at plating densities ranging from 5,000 to 40,000 cells/well depending on the doubling time of individual cell lines. After cell inoculation, the microtiter plates are incubated at 37° C., 5% CO2, 95% air and 100% relative humidity for 24 h prior to addition of experimental drugs.
After 24 h, two plates of each cell line are fixed in situ with TCA, to represent a measurement of the cell population for each cell line at the time of drug addition (Tz). Experimental drugs are solubilized in dimethyl sulfoxide at 400-fold the desired final maximum test concentration and stored frozen prior to use. At the time of drug addition, an aliquot of frozen concentrate is thawed and diluted to twice the desired final maximum test concentration with complete medium containing 50 μg/ml gentamicin. Additional four, 10-fold or ½ log serial dilutions are made to provide a total of five drug concentrations plus control. Aliquots of 100 μl of these different drug dilutions are added to the appropriate microtiter wells already containing 100 μl of medium, resulting in the required final drug concentrations.
Following drug addition, the plates are incubated for an additional 48 h at 37° C., 5% CO2, 95% air, and 100% relative humidity. For adherent cells, the assay is terminated by the addition of cold TCA. Cells are fixed in situ by the gentle addition of 50 μl of cold 50% (w/v) TCA (final concentration, 10% TCA) and incubated for 60 minutes at 4° C. The supernatant is discarded, and the plates are washed five times with tap water and air dried. Sulforhodamine B (SRB) solution (100 μl) at 0.4% (w/v) in 1% acetic acid is added to each well, and plates are incubated for 10 minutes at room temperature. After staining, unbound dye is removed by washing five times with 1% acetic acid and the plates are air dried. Bound stain is subsequently solubilized with 10 mM trizma base, and the absorbance is read on an automated plate reader at a wavelength of 515 nm. For suspension cells, the methodology is the same except that the assay is terminated by fixing settled cells at the bottom of the wells by gently adding 50 μl of 80% TCA (final concentration, 16% TCA). Using the seven absorbance measurements [time zero, (Tz), control growth, (C), and test growth in the presence of drug at the five concentration levels (Ti)], the percentage growth is calculated at each of the drug concentrations levels. Percentage growth inhibition is calculated as: [(Ti−Tz)/(C−Tz)]×100 for concentrations for which Ti>/=Tz [(Ti−Tz)/Tz]×100 for concentrations for which Ti<Tz.
Three dose response parameters are calculated for each experimental agent.

In series [2] the test system is human MV411 human acute myelogenous leukemia (AML) xenograft. Description: AML xenograft model in female SCID mice. The format is in vivo, mouse. As for the experimental part: The objective of the first study was to evaluate antitumor activities of the novel multiple-kinase inhibitor NTW-3475 against human MV411 human acute myelogenous leukemia (AML) xenograft model in female SCID mice.
Four or six animals were randomly assigned to each study group. Each animal was injected subcutaneously in the left and right flank area with 0.1 ml of 1.0×10^8 MV411 cells per mL.
Each test or control animal was placed on a 5-day on, two-day off for two cycles of vehicle negative control or 25, 50 mg/kg of NTW-3475. Tumor growth was measured with a digital hand held caliper twice weekly (once tumor emerges) prior to the first dosing and then two to three times weekly until euthanized. Animals were weighed prior to tumor cell injection, prior to dosing, two to three times weekly with tumor growth measurements, and prior to euthanasia.
The objective of the first study was to evaluate antitumor activities of the novel multiple-kinase inhibitor Compounds 11, 68, and 82 against human MV411 human acute myelogenous leukemia (AML) xenograft model in female SCID mice.
Each test or control animal was placed on a 5-day on, two-day off for two cycles of vehicle negative control or 25, 50 mg/kg of compound. Tumor growth was measured with a digital hand held caliper twice weekly (once tumor emerges) prior to the first dosing and then two to three times weekly until euthanized. Animals were weighed prior to tumor cell injection, prior to dosing, two to three times weekly with tumor growth measurements, and prior to euthanasia.

The test system of series [3] is human K562 chronic myelogenous leukemia (CML) xenograft. The experiment in a line: CML xenograft model in female SCID mice. The format is in vivo, mouse. As for the experimental part:
The objective of the second study was to evaluate antitumor activities of novel multiple-kinase inhibitor NTW-3475 in human K562 chronic myelogenous leukemia (CML) xenograft model in female SCID mice.
Four to six animals were randomly assigned to study groups. Each animal was weighed, and then injected subcutaneously in the left and right flank area with 0.1 ml of 8.0×10^7 K562 cells per mL.
Each test or control animal was on a 5-day on, two-day off for two cycles treatment schedule. Tumor growth was measured with a digital hand held caliper twice weekly (once tumor emerges) prior to the first dosing and then two to three times weekly until euthanized. Animals were weighed prior to tumor cell injection, prior to dosing, two to three times weekly with tumor growth measurements, and prior to euthanasia.
This example illustrated antitumor activities of Compound 10 and 11 in human K562 chronic myelogenous leukemia (CML) xenograft model in female SCID mice.
On the appropriate days, each animal in an appropriate group will receive a specific amount of test article either at 75 or 100 mg/kg, and the dosing volume is 10 ml/kg by oral gavage as indicated. Dosing schedule will be once daily for 10 days (qd×10, 5 days on and 2 days off for 2 cycles).

The test system of series [4] is human MIAPaCa-2 pancreatic carcinoma xenograft. Description: Pancreatic carcinoma xenograft in athymic nude mice. The format is in vivo, mouse. To be noted: MIAPaCa-2 xenograft. The protocol: The objective of the third study was to evaluate antitumor activities of novel multiple-kinase inhibitor NTW-3475 in human MIAPaCa-2 pancreatic carcinoma xenograft in athymic nude-Faxn1 mice.
Four animals were randomly assigned to study groups. Each animal was weighed, and then injected subcutaneously in the left and right flank area with 0.1 ml of 5.0×10^7 MIAPaCa-2 cells per mL.
Each test or control animal was on a 5-day on, two-day off for two cycles treatment schedule with negative control vehicle, positive control Abraxane at 20 mg/kg or 25, 50 mg/kg of NTW-3475. Tumor growth was measured with a digital hand held caliper twice weekly (once tumor emerges) prior to the first dosing and then two to three times weekly until euthanized.
The objective of the third study was to evaluate antitumor activities of novel multiple-kinase inhibitor Compound 10, 11, 12, 53, 68, 82, 83, 88, and 90 in human MIAPaCa-2 pancreatic carcinoma xenograft in athymic nude-Faxn1 mice.
Each test or control animal was on a 5-day on, two-day off for three cycles treatment schedule with negative control vehicle or 40 mg/kg of Compound 10, 11, 12, 53, 68, 82, 83, 88 and 90. Tumor growth was measured with a digital hand held caliper twice weekly (once tumor emerges) prior to the first dosing and then two to three times weekly until euthanized.

The test system of series [5] is TT human Thyroid carcinoma xenograft. The experiment in a line: Thyroid carcinoma xenograft. The format is in vivo, mouse. The protocol:
This example assesses Compound 10, 53 and 88's anti-tumor activity using a SCID mouse xenograft models for TT human Thyroid carcinoma xenograft (FIGS. 65 to 69.)
On the appropriate days, each animal in an appropriate group will receive a specific amount of Compound 10 either at 50 or 100 mg/kg, and the dosing volume is 10 ml/kg by oral gavage as indicated. Dosing schedule will be once daily for 30 days.
On the appropriate days, each animal in an appropriate group will receive a specific amount of Compound 53 either at 50 or 100 mg/kg, and the dosing volume is 10 ml/kg by oral gavage as indicated. Dosing schedule will be once daily for 30 days.
Dosing schedule will be once daily for 30 days.

For series [6], the system named is AN3 human endometrial carcinoma xenograft. The experiment in a line: Endometrial carcinoma xenograft. It is filed as in vivo, mouse.

For `Cc1cc2c(F)c(Oc3nc(Nc4cc(C5CC5)[nH]n4)cc(N4CCN(C)CC4)n3)cc(F)c2[nH]1` [NTW-3475], in series [1], the antiproliferative activity result is “strong antiproliferative activity”. Moreover, the anti-tumor effect entry in series [2] is “strong anti-tumor effect”; in series [3], “strong anti-tumor effect”; in series [4] (nude mice, single agent), “strong anti-tumor effect”; in series [5] it was “anti-tumor effect”; in series [6], “anti-tumor effect”. The body weight change entry in series [2] was “minimal body weight lost”. Further, the “anti-tumor effect in combination with Abraxane” value in series [4] (combination with Abraxane) is “anti-tumor effect”.
